Assays:
Experiment in all cases: relative viability (nuclei count vs DMSO), 5 days (fraction); higher = more cells survive
[1] = compound: CN(C)CC1=CC(=CC=C1)N=C(C2=CC=CC=C2)C3=C(NC4=C3C=CC(=C4)C(=O)N(C)C)O + CCNC(=O)c1noc(-c2cc(C(C)C)c(O)cc2O)c1-c1ccc(CN2CCOCC2)cc1 [Luminespib] (partner 0.01 µM)
How it was run: (§1)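 For relative viability, nuclei counts in treated wells were divided by those in vehicle wells. Lung cancer cell lines had been pin-tool dosed in 1536-well plates the day after seeding and cultured for 5 days, then fixed and stained in one step (final 0.05% Triton X-100, 1% formaldehyde, 1 ug/ml Hoechst) and imaged at 4×. Doses were one drug alone or a fixed anchor-drug dose plus five library-drug doses (not always all listed) in √10 steps, and values are duplicate-plate medians.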

[2] = compound: CN(C)CC1=CC(=CC=C1)N=C(C2=CC=CC=C2)C3=C(NC4=C3C=CC(=C4)C(=O)N(C)C)O + CS(=O)(=O)CCNCc1ccc(-c2ccc3ncnc(Nc4ccc(OCc5cccc(F)c5)c(Cl)c4)c3c2)o1 [Lapatinib] (partner 2 µM)
How it was run: as §1

[3] = compound: CN(C)CC1=CC(=CC=C1)N=C(C2=CC=CC=C2)C3=C(NC4=C3C=CC(=C4)C(=O)N(C)C)O + Nc1ncn([C@H]2C[C@H](O)[C@@H](CO)O2)c(=O)n1 [Decitabine] (partner 2 µM)
How it was run: as §1

[4] = compound: CN(C)CC1=CC(=CC=C1)N=C(C2=CC=CC=C2)C3=C(NC4=C3C=CC(=C4)C(=O)N(C)C)O + O=C(c1cc(Cc2n[nH]c(=O)c3ccccc23)ccc1F)N1CCN(C(=O)C2CC2)CC1 [Olaparib] (partner 8 µM)
How it was run: as §1

Work on NCI-H2347 yielded a relative viability ([1]; first compound 0.08 µM) of 0.355, a relative viability ([1]; first compound 0.253 µM) of 0.444 and a relative viability ([1]; first compound 0.8 µM) of 0.34. The relative viability ([1]; first compound 2.53 µM) was 0.383, the relative viability ([1]; first compound 8 µM) was 0.298 and the relative viability ([2]; first compound 0.08 µM) was 1.01. It also gave a relative viability ([2]; first compound 0.253 µM) of 0.899, a relative viability ([2]; first compound 0.8 µM) of 0.975 and a relative viability ([2]; first compound 2.53 µM) of 0.953. For the same cell line, the relative viability ([2]; first compound 8 µM) was 0.963, the relative viability ([3]; first compound 0.08 µM) was 0.631 and the relative viability ([3]; first compound 0.253 µM) was 0.634. The relative viability ([3]; first compound 0.8 µM) was 0.583, the relative viability ([3]; first compound 2.53 µM) was 0.635 and the relative viability ([3]; first compound 8 µM) was 0.679. The relative viability ([4]; first compound 0.08 µM) was 0.536, the relative viability ([4]; first compound 0.253 µM) was 0.584 and the relative viability ([4]; first compound 0.8 µM) was 0.593. For the same cell line, the relative viability ([4]; first compound 2.53 µM) was 0.572 and the relative viability ([4]; first compound 8 µM) was 0.575.

Work on NCI-H2228 yielded a relative viability ([1]; first compound 0.08 µM) of 0.134, a relative viability ([1]; first compound 0.253 µM) of 0.152 and a relative viability ([1]; first compound 0.8 µM) of 0.142. It also gave a relative viability ([1]; first compound 2.53 µM) of 0.164, a relative viability ([1]; first compound 8 µM) of 0.137 and a relative viability ([2]; first compound 0.08 µM) of 1.06. For the same cell line, the relative viability ([2]; first compound 0.253 µM) was 1.13, the relative viability ([2]; first compound 0.8 µM) was 1.19 and the relative viability ([2]; first compound 2.53 µM) was 0.704. For the same cell line, the relative viability ([2]; first compound 8 µM) was 0.846, the relative viability ([4]; first compound 0.08 µM) was 0.781 and the relative viability ([4]; first compound 0.253 µM) was 0.542. The relative viability ([4]; first compound 0.8 µM) was 0.623, the relative viability ([4]; first compound 2.53 µM) was 0.689 and the relative viability ([4]; first compound 8 µM) was 0.557.

NCI-H1299 gave a relative viability ([2]; first compound 0.08 µM) of 0.957, a relative viability ([2]; first compound 0.253 µM) of 0.914 and a relative viability ([2]; first compound 0.8 µM) of 0.977. For the same cell line, the relative viability ([2]; first compound 2.53 µM) was 0.875, the relative viability ([2]; first compound 8 µM) was 0.915 and the relative viability ([4]; first compound 0.08 µM) was 0.982. The relative viability ([4]; first compound 0.253 µM) was 0.999, the relative viability ([4]; first compound 0.8 µM) was 0.962 and the relative viability ([4]; first compound 2.53 µM) was 0.909. The relative viability ([4]; first compound 8 µM) was 0.901.

NCI-H1563 was tested, and the relative viability ([1]; first compound 0.08 µM) was 0.49, the relative viability ([1]; first compound 0.253 µM) was 0.467 and the relative viability ([1]; first compound 0.8 µM) was 0.538. It also gave a relative viability ([1]; first compound 2.53 µM) of 0.576, a relative viability ([1]; first compound 8 µM) of 0.495 and a relative viability ([2]; first compound 0.08 µM) of 1.04. For the same cell line, the relative viability ([2]; first compound 0.253 µM) was 0.894, the relative viability ([2]; first compound 0.8 µM) was 0.815 and the relative viability ([2]; first compound 2.53 µM) was 0.683. It also gave a relative viability ([2]; first compound 8 µM) of 0.817.

NCI-H647 was tested, and the relative viability ([1]; first compound 0.08 µM) was 0.103, the relative viability ([1]; first compound 0.253 µM) was 0.133 and the relative viability ([1]; first compound 0.8 µM) was 0.227. For the same cell line, the relative viability ([1]; first compound 2.53 µM) was 0.199, the relative viability ([1]; first compound 8 µM) was 0.184 and the relative viability ([2]; first compound 0.08 µM) was 1.15. It also gave a relative viability ([2]; first compound 0.253 µM) of 1.03, a relative viability ([2]; first compound 0.8 µM) of 0.944 and a relative viability ([2]; first compound 2.53 µM) of 0.957. The relative viability ([2]; first compound 8 µM) was 0.603, the relative viability ([3]; first compound 0.08 µM) was 0.414 and the relative viability ([3]; first compound 0.253 µM) was 0.477. It also gave a relative viability ([3]; first compound 0.8 µM) of 0.423, a relative viability ([3]; first compound 2.53 µM) of 0.438 and a relative viability ([3]; first compound 8 µM) of 0.488. For the same cell line, the relative viability ([4]; first compound 0.08 µM) was 0.386, the relative viability ([4]; first compound 0.253 µM) was 0.579 and the relative viability ([4]; first compound 0.8 µM) was 0.523. It also gave a relative viability ([4]; first compound 2.53 µM) of 0.575 and a relative viability ([4]; first compound 8 µM) of 0.305.

For NCI-H838, the relative viability ([1]; first compound 0.08 µM) was 0.386, the relative viability ([1]; first compound 0.253 µM) was 0.355 and the relative viability ([1]; first compound 0.8 µM) was 0.254. For the same cell line, the relative viability ([1]; first compound 2.53 µM) was 0.331, the relative viability ([1]; first compound 8 µM) was 0.341 and the relative viability ([2]; first compound 0.08 µM) was 0.972. It also gave a relative viability ([2]; first compound 0.253 µM) of 1.01, a relative viability ([2]; first compound 0.8 µM) of 1.08 and a relative viability ([2]; first compound 2.53 µM) of 0.895. For the same cell line, the relative viability ([2]; first compound 8 µM) was 0.685, the relative viability ([3]; first compound 0.08 µM) was 0.485 and the relative viability ([3]; first compound 0.253 µM) was 0.507. For the same cell line, the relative viability ([3]; first compound 0.8 µM) was 0.427, the relative viability ([3]; first compound 2.53 µM) was 0.458 and the relative viability ([3]; first compound 8 µM) was 0.413. The relative viability ([4]; first compound 0.08 µM) was 0.789, the relative viability ([4]; first compound 0.253 µM) was 0.901 and the relative viability ([4]; first compound 0.8 µM) was 0.751. It also gave a relative viability ([4]; first compound 2.53 µM) of 0.726 and a relative viability ([4]; first compound 8 µM) of 0.665.

NCI-H727 gave a relative viability ([1]; first compound 0.08 µM) of 0.245, a relative viability ([1]; first compound 0.253 µM) of 0.377 and a relative viability ([1]; first compound 0.8 µM) of 0.296. For the same cell line, the relative viability ([1]; first compound 2.53 µM) was 0.543, the relative viability ([1]; first compound 8 µM) was 0.354 and the relative viability ([2]; first compound 0.08 µM) was 0.7. It also gave a relative viability ([2]; first compound 0.253 µM) of 0.855, a relative viability ([2]; first compound 0.8 µM) of 0.834 and a relative viability ([2]; first compound 2.53 µM) of 0.734. For the same cell line, the relative viability ([2]; first compound 8 µM) was 0.665, the relative viability ([3]; first compound 0.253 µM) was 0.817 and the relative viability ([3]; first compound 0.8 µM) was 0.841. The relative viability ([3]; first compound 2.53 µM) was 1.09, the relative viability ([3]; first compound 8 µM) was 0.864 and the relative viability ([4]; first compound 0.253 µM) was 0.697. It also gave a relative viability ([4]; first compound 0.8 µM) of 0.672, a relative viability ([4]; first compound 2.53 µM) of 0.672 and a relative viability ([4]; first compound 8 µM) of 0.86.

NCI-H661 showed a relative viability ([1]; first compound 0.08 µM) of 0.922, a relative viability ([1]; first compound 0.253 µM) of 0.904 and a relative viability ([1]; first compound 0.8 µM) of 0.964. The relative viability ([1]; first compound 2.53 µM) was 0.865, the relative viability ([1]; first compound 8 µM) was 0.811 and the relative viability ([2]; first compound 0.08 µM) was 0.502. The relative viability ([2]; first compound 0.253 µM) was 0.433, the relative viability ([2]; first compound 0.8 µM) was 0.559 and the relative viability ([2]; first compound 2.53 µM) was 0.472. For the same cell line, the relative viability ([2]; first compound 8 µM) was 0.291, the relative viability ([3]; first compound 0.08 µM) was 0.537 and the relative viability ([3]; first compound 0.253 µM) was 0.55. It also gave a relative viability ([3]; first compound 0.8 µM) of 0.477, a relative viability ([3]; first compound 2.53 µM) of 0.554 and a relative viability ([3]; first compound 8 µM) of 0.584. The relative viability ([4]; first compound 0.08 µM) was 0.739, the relative viability ([4]; first compound 0.253 µM) was 0.697 and the relative viability ([4]; first compound 0.8 µM) was 0.74. For the same cell line, the relative viability ([4]; first compound 2.53 µM) was 0.649 and the relative viability ([4]; first compound 8 µM) was 0.706.

Work on 201T yielded a relative viability ([1]; first compound 0.08 µM) of 1.06, a relative viability ([1]; first compound 0.253 µM) of 0.993 and a relative viability ([1]; first compound 0.8 µM) of 1.01. The relative viability ([1]; first compound 2.53 µM) was 1.05, the relative viability ([1]; first compound 8 µM) was 0.802 and the relative viability ([2]; first compound 0.08 µM) was 0.95. It also gave a relative viability ([2]; first compound 0.253 µM) of 1.01, a relative viability ([2]; first compound 0.8 µM) of 1.01 and a relative viability ([2]; first compound 2.53 µM) of 1.02. The relative viability ([2]; first compound 8 µM) was 0.981, the relative viability ([3]; first compound 0.08 µM) was 0.836 and the relative viability ([3]; first compound 0.253 µM) was 0.874. For the same cell line, the relative viability ([3]; first compound 0.8 µM) was 0.849, the relative viability ([3]; first compound 2.53 µM) was 0.855 and the relative viability ([3]; first compound 8 µM) was 0.738. For the same cell line, the relative viability ([4]; first compound 0.08 µM) was 0.829, the relative viability ([4]; first compound 0.253 µM) was 0.801 and the relative viability ([4]; first compound 0.8 µM) was 0.839. For the same cell line, the relative viability ([4]; first compound 2.53 µM) was 0.817 and the relative viability ([4]; first compound 8 µM) was 0.721.

Source: the supplement of paper PMC10307832
